From US9212214B2, “Methods of increasing the expression yield of vitamin K-dependent proteins” (CSL Limited, priority 2009, dated 2015)

Assays:
gamma carboxylation = conditions: cell free system; cited from earlier work
[1] = test system: CHO-S cells expressing albumin fused Factor VII; experiment: Specific activity of albumin-fused Factor VII expressed in bioreactor culture (Experiment 6); assay type: cell-based, Chinese hamster; conditions: albumin-fused FVII; 50 ng/ml increased daily to 250 ng/ml; MSB n = 4, rMSB n = 25
Procedure: An albumin fused Factor VII was cloned and expressed in CHO-S cells as described in Thromb. Haemost. 2008 April; 99(4):659-67.
Cultivation of mammalian cells occurred under either batch or fed-batch conditions at a starting volume of 3 liters in a 5 liter bioreactor system. Controlled parameters were temperature (37° C.), pH (7.2), agitation (250 rpm) and dissolved oxygen. The medium used was a commercially available, chemically defined media (CD-CHO, Invitrogen) which was supplemented with MSB or rMSP in a starting concentration of 50 ng/ml. Each day the concentration was increased by 50 ng/ml until on day 5 a maximum concentration of 250 ng/ml was reached, which was then held for the remainder of the cultivation period.
The activity of FVII was determined using a chromogenic assay (COASET® FVII test kit (Chromogenix, 82190063)). The amount of protein was determined via reverse phase HPLC.

CHO-K1 clone A5 (rIX-FP) = experiment: Extended draw-fill reactor culture (Experiment 3): rIX-FP activity, antigen, cell growth; assay type: cell-based, Chinese hamster; conditions: for Ratio / Activity / Antigen: extended draw-fill; for Activity / Antigen: approx. 7 L
Procedure: (§1) Cell counts were performed utilising the Innovartis Cedex automated cell counter in accordance with the manufacturers instructions. Glucose, lactate, ammonia and glutamine assays were performed utilising the Yellow Springs Instruments (YSI) 7100 analyser in accordance with the manufacturers instructions. Off-line determination of dissolved carbon dioxide concentrations were performed using the RapidLab 248 Blood Gas Analyser from Siemens (formerly Bayer) in accordance with the manufacturer's instructions. Antigen assay was performed using an internal procedure ELISA for Quantitation of Factor IX Antigen. The Factor IX Activity assay was performed using the “BIOPHEN FIX” chromogenic FIX test. Sampling was performed daily from the point of inoculation for all assays.
The CHO-K1 clone A5 was cultivated under extended draw-fill conditions with two media, Media A and yet another commercially obtainable serum-free chemically defined medium specifically designed for the production of recombinant proteins in CHO cells: Media C. While comparing the performance of the media, the effect of the addition of MSB or reduced MSB was assessed (Table 5). As with previous experiments the outputs from this investigation were growth parameters of the cell and the production of active rIX-FP molecule and rFIX-FP antigen.

[2] = test system: CHO-S cell line expressing rIX-FP; experiment: Flask productivity assay (Experiment 1): FIX activity, FIX antigen; assay type: cell-based, Chinese hamster; conditions: for Ratio (activity/antigen) / Activity (Factor IX activity) / Antigen (Factor IX antigen): double addition; for Activity (Factor IX activity) / Antigen (Factor IX antigen): 50 ng/ml, mean of duplicate flasks
Procedure: as §1
The Flask productivity assay was performed as described below.
A CHO-S cell line expressing rIX-FP was used and cultured in an alternative commercially obtainable serum-free chemically defined medium specifically designed for the production of recombinant proteins in CHO cells (“Medium B”) with 8 mM L-glutamine. In the N−1 and N (with N being the last passage number) passage 50 ng/ml MSB was added. Another addition was performed at 48 hours post inoculation. Cultures were inoculated at 2×10^5 viable cells/mL at a 30 mL volume in a 125 mL shake flask, cultured at 37 C, 5% CO2, 125 rpm in a humidified incubator (Multitron, Infors HT). Samples were assayed for cell density, cell viability, rIX-FP activity and antigen content.
Experiment 1 was performed to assess the effect of reduced MSB on culture performance compared to additions of MSB in a flask format. The cells were subjected to the standard flask productivity assay with assays for cell density, Factor IX antigen and Factor IX activity performed.

[3] = test system: CHO-S cell line expressing rIX-FP; experiment: as above; assay type: cell-based, Chinese hamster; conditions: single addition; for Activity (Factor IX activity) / Antigen (Factor IX antigen): 50 ng/ml, mean of duplicate flasks
rIX-FP CHO-K1 clone = experiment: Reactor fed-batch culture (Experiment 2): rIX-FP activity, antigen, cell growth; assay type: cell-based, Chinese hamster; conditions: for Activity (total active produced) / Antigen (total antigen produced) / viable cell densities / growth profile / Ratio (active molecule to antigen): fed-batch; for Activity (total active produced) / Antigen (total antigen produced): Medium A, approx. 4 L; for Activity (total active produced) / Antigen (total antigen produced) / Ratio (active molecule to antigen): up to 192 hour post inoculation; for viable cell densities / growth profile: reduced versus non-reduced MSB
Procedure: The medium used for the propagation was a commercially obtainable serum-free chemically defined medium specifically designed for the production of recombinant proteins in CHO cells: “Medium A”. The clones utilised the Lonza glutamine synthetase (GS) system and were passaged in the absence of glutamine with selection maintained by 25 uM methionine sulfoximine (MSX). In the last culture stage, used for productivity measurement, both glutamine and MSX were not added to the medium.
Vitamin K is essential to the cell for the production of active recombinant Factor IX, due to the Vitamin K-dependent gamma-carboxylation of the molecule. In experiments describing the present invention Vitamin K3 in the form of Menadione sodium bi-sulphate (MSB, Sigma) was chosen as the source of Vitamin K as this form is water soluble and thus readily accessible to the cell. Addition of MSB occurred daily at a concentration of 50 ng/ml.
Due to the inherent unstable nature of the reduced MSB, quantification of exact concentrations of the reduced MSB was not available at the time of experimentation. Therefore all stated concentrations of reduced MSB are calculated values derived from the starting concentration of MSB at the commencement of the reduction process. It is anticipated that the actual reduced MSB concentration is less than the calculated amount due to some small losses occurring through the reduction process.
The reactors were Sartorius/Braun 5 L dished bottom glass reactors, with a single Rushton Impeller for agitation and a ring sparger. All reactor cultures were performed under the following conditions unless otherwise stated.
as §1
Under reactor fed-batch conditions a rIX-FP CHO-K1 clone was cultivated under the standard conditions. This experiment assessed the cell growth, antigen production and active rIX-FP production from the cell under either MSB addition or reduced MSB addition. The feed utilised in this experiment was glucose based (100 g/l) supplemented with the following amino acids: • ? Asparagine at 21.4 g/L; • ? Cysteine at 5.6 g/L; • ? Aspartic acid at 5 g/L.
The reactor test conditions were Reactor A4 utilising a non-reduced MSB addition and Reactor B4 utilising a reduced MSB addition. In both reactors Medium A was used as described in Example 4.

[4] = test system: Chinese hamster ovary (CHO) cells secreting Factor IX; conditions: cited from earlier work

Molecule | promotion of gamma carboxylation (gamma carboxylation) | Specific Activity, Mean [1] [IU/mg] | Ratio (CHO-K1 clone A5 (rIX-FP); Medium A) | Activity (CHO-K1 clone A5 (rIX-FP); Medium A, 50 ng/ml per day) [U] | Antigen (CHO-K1 clone A5 (rIX-FP); Medium A, 50 ng/ml per day) [U] | Ratio (CHO-K1 clone A5 (rIX-FP); Medium C) | Activity (CHO-K1 clone A5 (rIX-FP); Medium C, 50 ng/ml per day) [U] | Antigen (CHO-K1 clone A5 (rIX-FP); Medium C, 50 ng/ml per day) [U] | Ratio (activity/antigen) ([2]; 72 hours) | Activity (Factor IX activity) ([2]; 72 hours) | Antigen (Factor IX antigen) ([2]; 72 hours) | Ratio (activity/antigen) ([2]; 96 hours) | Activity (Factor IX activity) ([2]; 96 hours) | Antigen (Factor IX antigen) ([2]; 96 hours) | Ratio (activity/antigen) ([3]; 72 hours) | Activity (Factor IX activity) ([3]; 72 hours) | Antigen (Factor IX antigen) ([3]; 72 hours) | Ratio (activity/antigen) ([3]; 96 hours) | Activity (Factor IX activity) ([3]; 96 hours) | Antigen (Factor IX antigen) ([3]; 96 hours) | other results
CC1=CC(=O)c2ccccc2C1=O [menadione, 2-methyl-1,4-naphthoquinone] | inactive in promoting gamma carboxylation | – | – | – | – | – | – | – | – | – | – | – | – | – | – | – | – | – | – | – | –
CC1(S(=O)(=O)[O-])CC(=O)c2ccccc2C1=O.[Na+] (stereo not shown) [MSB, Menadione sodium bisulphite, reference compound] | – | 313.5 | 0.49 | 28864 | 58987 | 0.52 | 23570 | 45443 | 0.96 | 431.5 | 451.5 | 0.56 | 649 | 1155.5 | 0.57 | 357.5 | 625.5 | 0.24 | 629.5 | 2573 | activity values as percent of the reduced MSB addition values (CHO-K1 clone A5 (rIX-FP); draw-fill, both media types): 94-98%; amount of active rIX-FP (rIX-FP CHO-K1 clone; fed-batch conditions): 22357 IU; Activity (total active produced) (rIX-FP CHO-K1 clone): 22357 U; Antigen (total antigen produced) (rIX-FP CHO-K1 clone): 49479 U; viable cell densities / growth profile (rIX-FP CHO-K1 clone): very similar growth profiles and maximum cell densities; Ratio (active molecule to antigen) (rIX-FP CHO-K1 clone): 0.45
Reduced Menadione Sodium Bisulphite [rMSB] | – | 392.6 | 0.66 | 30580 | 46254 | 0.62 | 24052 | 38528 | 0.93 | 477 | 514.5 | 0.71 | 902 | 1271 | 0.97 | 500 | 516 | 0.86 | 1070.5 | 1249 | cell growth, reduced versus non-reduced MSB (CHO-K1 clone A5 (rIX-FP); draw-fill, 50 ng/ml per day): very little difference in relation to cell growth; antigenic material compared to MSB additions (CHO-K1 clone A5 (rIX-FP); draw-fill, Medium A): 78%; antigenic material compared to MSB additions (CHO-K1 clone A5 (rIX-FP); draw-fill, Medium C): 84%; increase in ratio compared to MSB additions (CHO-K1 clone A5 (rIX-FP); draw-fill, depending on media type): 19-35%; activity compared with non-reduced MSB additions ([2]; 72 hr): slightly higher than non-reduced MSB additions; activity compared with MSB addition ([2]; 96 hr): greater activity results than that obtained for the MSB addition; amount of active rIX-FP (rIX-FP CHO-K1 clone; fed-batch conditions): 35444 IU; antigenic yield (rIX-FP CHO-K1 clone; fed-batch conditions): 38197 IU; antigenic yield as percent of the MSB value (rIX-FP CHO-K1 clone; fed-batch conditions): 77%; increase in active rIX-FP relative to MSB addition (rIX-FP CHO-K1 clone; fed-batch conditions): 59%; Activity (total active produced) (rIX-FP CHO-K1 clone): 35444 U; Antigen (total antigen produced) (rIX-FP CHO-K1 clone): 38197 U; viable cell densities / growth profile (rIX-FP CHO-K1 clone): very similar growth profiles and maximum cell densities; Ratio (active molecule to antigen) (rIX-FP CHO-K1 clone): 0.93
Cc1cc(O)c2ccccc2c1O [reduced menadione] | inactive in promoting gamma carboxylation | – | – | – | – | – | – | – | – | – | – | – | – | – | – | – | – | – | – | – | –
vitamin K | – | – | – | – | – | – | – | – | – | – | – | – | – | – | – | – | – | – | – | – | concentration in cell culture medium at which requirement to elicit active Factor IX reaches saturation [4]: 5 µg/mL
